Test results reported in ChEMBL document CHEMBL1201862, “PubChem BioAssay data set” (2004).
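Growth conditions: 96-well plates. Treatment: test compound, 48 hours, 5 concentrations. Analysis: linear interpolation between bracketing concentrations; unreached endpoints set to highest concentration. Abbreviation: GI50, concentration required for 50% inhibition of growth.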 Activity calls are given as the source filed them. Rule as the data show it: active = GI50 up to about 1.1 µM and inactive = higher.

Columns and labels:
Assay in all cases: NCI tumour cell line growth inhibition, 48 h
[1] = tested on: HL-60
[2] = tested on: OVCAR-5
[3] = tested on: MOLT-4
[4] = tested on: OVCAR-4
[5] = tested on: SK-MEL-28
[6] = tested on: T47D
[7] = tested on: MCF7
[8] = tested on: ACHN
[9] = tested on: MDA-MB-435
[10] = tested on: SK-OV-3
[11] = tested on: MDA-MB-231
[12] = tested on: Malme-3M
[13] = tested on: IGROV-1
[14] = tested on: U-251
[15] = tested on: HOP-92
[16] = tested on: NCI-H226
[17] = tested on: CCRF-CEM
[18] = tested on: UACC-257
[19] = tested on: SK-MEL-2
[20] = tested on: HCC 2998

Measured: GI50

CC(NC(=O)C(Cc1ccc(OC(=O)c2ccccc2)cc1)NC(=O)OC(C)(C)C)C(=O)NCC(=O)NC(Cc1ccccc1)C(=O)NN (stereo not drawn)
inactive: [1] 16 µM | [2] > 100 µM | [3] 17.9 µM | [4] 96.8 µM | [5] 35.7 µM | [6] 62.8 µM | [7] 40.9 µM | [8] > 100 µM | [9] 39 µM | [10] > 100 µM | [11] 37.9 µM | [12] 64.9 µM | [13] 25.4 µM | [14] 51.5 µM | [15] 98.2 µM | [16] > 100 µM

O=C(CCC(=O)c1ccc(Cl)cc1)NO
inactive: [1] > 100 µM | [17] > 100 µM | [18] > 100 µM | [2] > 100 µM | [3] > 100 µM | [4] > 100 µM | [5] > 100 µM | [6] > 100 µM | [7] > 100 µM | [19] > 100 µM | [8] > 100 µM | [9] > 100 µM | [10] > 100 µM | [11] > 100 µM | [13] > 100 µM | [14] > 100 µM | [15] > 100 µM | [20] > 100 µM | [16] > 100 µM

CC1=NN(C(=O)CC(=O)Nc2ccccc2C)C(=O)C1/N=N/c1ccc(C(=O)O)cc1 (stereo not drawn)
inactive: [1] > 100 µM | [17] 86.9 µM | [18] > 100 µM | [2] > 100 µM | [3] 88.1 µM | [4] > 100 µM | [5] > 100 µM | [6] 44.1 µM | [7] > 100 µM | [19] > 100 µM | [8] > 100 µM | [9] > 100 µM | [11] > 100 µM | [12] > 100 µM | [13] > 100 µM | [14] > 100 µM | [15] 20.5 µM | [20] > 100 µM

Oc1c(Br)cc(Br)cc1CN(Cc1cc(Br)cc(Br)c1O)C1CCCCC1
inactive: [18] 19.5 µM | [2] 37.6 µM | [3] 43.4 µM | [4] 46.9 µM | [5] 48.1 µM | [6] 32.4 µM | [7] 25.5 µM | [19] 20.2 µM | [8] 31.1 µM | [9] 31.3 µM | [10] 44.6 µM | [11] 26.4 µM | [12] 21.2 µM | [13] 34.1 µM | [14] 24.9 µM | [15] 32.5 µM | [16] 59.4 µM

CCOC(=O)N1CCN(c2c(N)nc(C)nc2O)CC1
inactive: [1] > 100 µM | [17] > 100 µM | [18] > 100 µM | [2] > 100 µM | [3] > 100 µM | [4] > 100 µM | [5] > 100 µM | [6] > 100 µM | [7] > 100 µM | [19] > 100 µM | [8] > 100 µM | [9] > 100 µM | [11] > 100 µM | [12] > 100 µM | [14] > 100 µM | [15] > 100 µM | [20] > 100 µM | [16] > 100 µM

CCN(CCCN(CC)C(=O)Nc1c(C)cccc1C)C(=O)Nc1c(C)cccc1C
inactive: [18] > 100 µM | [2] > 100 µM | [3] > 100 µM | [4] > 100 µM | [5] > 100 µM | [6] 35.4 µM | [7] > 100 µM | [19] > 100 µM | [8] > 100 µM | [9] > 100 µM | [10] > 100 µM | [11] > 100 µM | [12] > 100 µM | [13] > 100 µM | [14] > 100 µM | [15] > 100 µM | [20] > 100 µM | [16] > 100 µM

COc1ccc(-c2nc(N)c3ncn(C4OC(CO)C(O)C4O)c3n2)cc1 (stereo not drawn)
inactive: [1] > 100 µM | [17] > 100 µM | [18] > 100 µM | [2] > 100 µM | [3] 70.6 µM | [4] > 100 µM | [5] > 100 µM | [6] > 100 µM | [7] > 100 µM | [19] > 100 µM | [8] > 100 µM | [9] > 100 µM | [10] > 100 µM | [11] > 100 µM | [12] > 100 µM | [13] > 100 µM | [14] > 100 µM | [15] > 100 µM | [16] > 100 µM

COc1ccc(OC)c2sc(N3C(=O)/C(=C/c4ccccc4S)N=C3c3ccccc3)nc12
inactive: [1] 26.1 µM | [17] 22.3 µM | [18] 63 µM | [2] > 100 µM | [3] 8.83 µM | [4] 39.5 µM | [5] > 100 µM | [6] 24.2 µM | [7] 18.7 µM | [19] 25.8 µM | [8] 34.8 µM | [9] 17.6 µM | [10] > 100 µM | [11] > 100 µM | [13] 90.4 µM | [14] 23.8 µM | [15] > 100 µM | [20] > 100 µM
